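These data come from cells grown in 96-well plates and exposed to compound for 48 hours at five concentrations. GI50 marks 50% less growth. TGI marks complete inhibition of growth.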
Tests used:
Experiment in all cases: DTP human tumour cell line panel, 48 h
[1] = test system: COLO 205 colon
[2] = test system: HOP-62 NSCLC
[3] = test system: LOX IMVI melanoma
[4] = test system: MDA-MB-435
[5] = test system: NCI-H226 lung
[6] = test system: SK-OV-3 ovarian
[7] = test system: A498 renal
[8] = test system: RPMI-8226 leukemia

| SMILES | GI50 [1] [µM] | TGI [1] [µM] | GI50 [2] [µM] | TGI [2] [µM] | GI50 [3] [µM] | TGI [3] [µM] | GI50 [4] [µM] | TGI [4] [µM] | GI50 [5] [µM] | TGI [5] [µM] | GI50 [6] [µM] | TGI [6] [µM] | GI50 [7] [µM] | TGI [7] [µM] | GI50 [8] [µM] | TGI [8] [µM] |
| --- | --- | --- | --- | --- | --- | --- | --- | --- | --- | --- | --- | --- | --- | --- | --- | --- |
| CCN(CC)CCOC(COc1cc(C)cc(C)c1)COc1cc(C)cc(C)c1 | 1.65 | 3.52 | 2.72 | 18.5 | 1.31 | 2.73 | 1.64 | 3.63 | 7.16 | 23.9 | 4.86 | 17.7 |  |  |  |  |
| Cn1cc(-c2cc(-c3cn(C)c4ccccc34)[nH]n2)c2ccccc21 | 7.98 | > 100 | 17.3 | 60 | 5.38 | > 100 |  |  | 19.8 | 99 | 31.6 | > 100 | 19.6 | 90.3 | 37.8 | > 100 |
| COC1C(OC(=O)c2ccc(C)[nH]2)C(O)C(Oc2ccc3c(O)c(NC(=O)c4ccc(O)c(CC=C(C)C)c4)c(=O)oc3c2Cl)OC1(C)C (stereo unspecified) |  | 52.8 |  | 33.4 |  | 38.4 |  | > 100 |  | 36.7 |  | 54.6 |  | 33 |  | 30.4 |
| CN1CCCCC1CCN1c2ccccc2Sc2ccc(Br)cc21 (stereo unspecified) | 2.04 | 4.2 | 5.46 | 22.8 | 1.99 | 3.91 | 1.98 | 4.24 | 11.8 | 28.8 | 3.44 | 12.3 | 2.21 | 7.08 | 2.24 | 5.49 |
| CC(=O)ON(OCc1ccc2ccccc2c1)C(C)=O | > 100 | > 100 | > 100 | > 100 | 85.4 | > 100 | > 100 | > 100 | > 100 | > 100 | > 100 | > 100 | > 100 | > 100 | > 100 | > 100 |
| S=c1ssnc1-c1cc2ccccc2o1 | 14.8 | 39.5 | 17.3 | 37.6 | 4.12 | 15.7 | 11.6 | 32 | 23.2 | 54.4 | 18.7 | 39.2 | 20 | 38.8 | 2.36 | 25.7 |
| O=[N+]([O-])c1cccc(/C=N/Nc2ccc3ccccc3n2)c1O |  | 9.48 |  | 8.9 |  | 12.7 |  | 20.1 |  | 9.98 |  | 11.1 |  | > 66.9 |  | 24.3 |
| CC1(C)N=C(N)N=C(N)N1c1ccc(CCCC(=O)Nc2ccc(S(=O)(=O)F)cc2)cc1 | 5.59 | > 100 | 40.9 | > 100 | 6.03 | > 100 | 3.75 | > 100 | 63.1 | > 100 | > 100 | > 100 | 37.5 | > 100 | 5.36 | > 100 |
| CC(C)(O)C1COC2=C1C(=O)c1ccccc1C2=O (stereo unspecified) |  | > 100 |  |  |  | 41.9 |  | 44.6 |  | > 100 |  | > 100 |  | > 100 |  | > 100 |
| COc1cccc(C2CC(=O)Nc3c2c(C)nn3-c2nc3ccccc3[nH]2)c1OC (stereo unspecified) | 5.72 | 20.1 | 2.73 | 7.78 | 3.65 | 12.9 | 3 | 12 | 3.36 | 15.9 | 3.83 | 13 |  | 8.38 | 3.21 | 10.6 |
| CC(C)(Oc1ccc(-c2cccc3ccccc23)cc1)C(=O)O |  | > 100 |  | > 100 |  |  |  | > 100 |  | > 100 |  | > 100 |  | > 100 |  | > 100 |
| CCc1ccc2c(c1)C(=O)c1c-2n(CCCN)c(=O)c2cc(OC)c(OC)cc12 |  |  | 1.84 | 3.29 | 1.36 | 2.73 | 1.97 | 3.55 | 21 | 42.5 | 2 | 3.58 |  |  | 1.41 | 3.02 |
| COc1ccc2nc3ccccc3c(NCCNCCO)c2c1 | 0.397 | 1.77 | 0.604 | 3.99 | 0.404 | 3.75 | 0.474 | 1.83 | 0.947 | 3.38 | 0.869 | 7.67 | 0.431 | 1.71 | 0.406 | 2.73 |
| CCCN1C(=O)/C(=C/c2ccc(SC(F)(F)F)cc2)SC1=Nc1ccc(OC)cc1 | > 50 | > 50 | 16.5 | > 50 | 4.36 | > 50 | 20 | > 50 | 14.8 | > 50 | 15.2 | > 50 | 11 | 21.9 | 11.8 | > 50 |
| [O]=[Sn]([CH]1CCCCC1)[CH]1CCCCC1 | 0.249 | 0.731 | 0.407 | 1.54 | 0.123 | 0.297 | 0.218 | 0.833 | 0.229 | 0.657 | 1.2 | 2.52 | 0.167 | 0.451 | 0.188 | 0.718 |
| CC[C@H](C)[C@H](NC(=O)[C@H]1CCCCN1C)C(=O)N(C)[C@H](CCc1nc(C(=O)N[C@@H](Cc2ccccc2)C[C@H](C)C(=O)O)cs1)C(C)C | 0.144 | 1.83 | 0.208 | > 25 | 0.123 | > 25 | 0.012 | 0.0724 | 8.83 | > 25 | 0.585 | > 25 | 0.272 | > 25 | 0.1 | > 25 |
